11 compounds from ChEMBL document CHEMBL4052588, “Design of a Biased Potent Small Molecule Inhibitor of the Bromodomain and PHD Finger-Containing (BRPF) Proteins Suitable for Cellular and in Vivo Studies” (J Med Chem, 2017) can be followed below.

pIC50: −log10 of the molar value.

The target in assay [1] is T1, Bromodomain-containing protein 9 (Homo sapiens, UniProt Q9H8M2).
T1 sequence (Q9H8M2 whole entry): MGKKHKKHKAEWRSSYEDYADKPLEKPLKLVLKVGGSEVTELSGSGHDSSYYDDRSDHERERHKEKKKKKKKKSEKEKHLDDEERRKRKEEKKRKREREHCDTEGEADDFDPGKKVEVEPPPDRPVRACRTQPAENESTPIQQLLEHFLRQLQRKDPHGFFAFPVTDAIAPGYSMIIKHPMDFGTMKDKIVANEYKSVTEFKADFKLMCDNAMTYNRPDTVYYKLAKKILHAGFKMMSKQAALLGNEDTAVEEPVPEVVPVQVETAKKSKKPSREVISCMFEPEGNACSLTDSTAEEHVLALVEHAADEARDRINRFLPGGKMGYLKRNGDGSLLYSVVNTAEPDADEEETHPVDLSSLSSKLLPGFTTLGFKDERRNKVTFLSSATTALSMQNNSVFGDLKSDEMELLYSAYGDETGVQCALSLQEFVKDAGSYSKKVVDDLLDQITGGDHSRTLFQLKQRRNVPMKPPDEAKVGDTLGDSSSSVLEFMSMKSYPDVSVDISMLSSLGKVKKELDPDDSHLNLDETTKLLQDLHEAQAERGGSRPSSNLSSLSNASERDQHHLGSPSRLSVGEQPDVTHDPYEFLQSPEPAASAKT
Description: Inhibition of human BRD9 expressed in Escherichia coli BL21 after 1 hr by BROMOscan assay.

The target in assay [2] is T2, Bromodomain-containing protein 4 (Homo sapiens, UniProt O60885). Description: Inhibition of human BRD4-BD1 expressed in Escherichia coli BL21 after 1 hr by BROMOscan assay.
Assay [3] concerns the target T3, Bromodomain-containing protein 1 (Homo sapiens) (UniProt O95696).
T3 sequence (whole entry): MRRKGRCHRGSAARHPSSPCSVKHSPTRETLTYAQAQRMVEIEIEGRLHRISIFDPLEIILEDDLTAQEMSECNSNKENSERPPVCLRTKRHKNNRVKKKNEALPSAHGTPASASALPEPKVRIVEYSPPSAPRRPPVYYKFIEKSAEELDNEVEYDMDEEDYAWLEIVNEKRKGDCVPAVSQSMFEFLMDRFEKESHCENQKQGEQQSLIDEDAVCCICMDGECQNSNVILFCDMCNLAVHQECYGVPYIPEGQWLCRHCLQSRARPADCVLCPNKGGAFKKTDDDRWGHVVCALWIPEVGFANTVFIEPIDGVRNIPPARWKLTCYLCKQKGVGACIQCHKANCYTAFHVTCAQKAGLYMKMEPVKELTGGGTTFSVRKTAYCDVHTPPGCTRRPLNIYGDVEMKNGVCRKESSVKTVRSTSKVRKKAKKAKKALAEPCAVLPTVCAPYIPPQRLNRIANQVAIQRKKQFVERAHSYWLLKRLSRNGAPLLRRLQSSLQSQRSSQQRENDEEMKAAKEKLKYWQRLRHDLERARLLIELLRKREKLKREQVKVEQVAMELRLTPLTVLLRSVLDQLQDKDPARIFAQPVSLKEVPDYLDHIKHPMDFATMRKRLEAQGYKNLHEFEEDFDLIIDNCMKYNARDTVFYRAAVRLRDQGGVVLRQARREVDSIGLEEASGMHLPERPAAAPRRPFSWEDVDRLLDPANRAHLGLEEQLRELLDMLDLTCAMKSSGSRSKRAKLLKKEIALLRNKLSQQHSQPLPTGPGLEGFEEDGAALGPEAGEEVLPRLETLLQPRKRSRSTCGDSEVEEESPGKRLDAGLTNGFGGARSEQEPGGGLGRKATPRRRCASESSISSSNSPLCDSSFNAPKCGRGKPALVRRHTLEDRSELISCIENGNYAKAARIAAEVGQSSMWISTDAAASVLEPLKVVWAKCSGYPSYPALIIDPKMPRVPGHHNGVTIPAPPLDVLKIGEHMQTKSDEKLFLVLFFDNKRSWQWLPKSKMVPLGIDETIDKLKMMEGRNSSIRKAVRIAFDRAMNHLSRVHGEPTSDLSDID

Assay [4] has as its target T4, Bromodomain and PHD finger-containing protein 3 (Homo sapiens) (UniProt Q9ULD4).
T4 sequence (whole entry): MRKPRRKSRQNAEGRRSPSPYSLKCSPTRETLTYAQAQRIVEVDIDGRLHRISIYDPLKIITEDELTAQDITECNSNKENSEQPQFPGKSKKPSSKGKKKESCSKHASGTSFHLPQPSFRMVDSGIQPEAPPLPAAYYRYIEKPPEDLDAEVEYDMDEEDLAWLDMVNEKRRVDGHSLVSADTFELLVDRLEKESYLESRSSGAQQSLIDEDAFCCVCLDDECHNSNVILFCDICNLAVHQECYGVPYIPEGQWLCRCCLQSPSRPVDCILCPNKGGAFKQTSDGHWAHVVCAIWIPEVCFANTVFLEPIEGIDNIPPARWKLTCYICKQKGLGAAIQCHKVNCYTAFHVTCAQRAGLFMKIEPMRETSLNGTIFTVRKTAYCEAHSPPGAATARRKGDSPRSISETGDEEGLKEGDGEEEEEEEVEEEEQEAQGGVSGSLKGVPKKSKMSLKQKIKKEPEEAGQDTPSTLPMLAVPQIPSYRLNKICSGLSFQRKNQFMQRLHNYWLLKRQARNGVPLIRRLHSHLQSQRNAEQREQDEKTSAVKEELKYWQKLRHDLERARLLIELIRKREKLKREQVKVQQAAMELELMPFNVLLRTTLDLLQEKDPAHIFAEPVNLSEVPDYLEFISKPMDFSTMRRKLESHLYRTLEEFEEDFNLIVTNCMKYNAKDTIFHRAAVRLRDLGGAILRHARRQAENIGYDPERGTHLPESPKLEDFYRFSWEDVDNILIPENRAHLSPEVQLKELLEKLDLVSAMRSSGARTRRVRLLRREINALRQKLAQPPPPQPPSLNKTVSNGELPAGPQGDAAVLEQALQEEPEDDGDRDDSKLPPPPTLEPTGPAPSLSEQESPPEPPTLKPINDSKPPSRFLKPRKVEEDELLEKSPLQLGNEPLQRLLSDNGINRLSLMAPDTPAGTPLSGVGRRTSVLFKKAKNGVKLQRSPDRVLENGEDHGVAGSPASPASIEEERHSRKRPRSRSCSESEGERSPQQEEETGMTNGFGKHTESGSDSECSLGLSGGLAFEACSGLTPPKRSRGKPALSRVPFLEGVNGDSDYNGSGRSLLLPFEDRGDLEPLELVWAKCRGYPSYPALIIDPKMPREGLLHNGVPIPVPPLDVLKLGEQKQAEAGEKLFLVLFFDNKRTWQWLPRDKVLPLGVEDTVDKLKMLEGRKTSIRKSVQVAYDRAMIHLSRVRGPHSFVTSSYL

Assay [5] addresses T5, Bromodomain-containing protein 9 (Homo sapiens) (UniProt Q9H8M2).
T5 sequence (whole entry): T1 sequence (Q9H8M2 whole entry)

For assay [6], the target named is T2, Bromodomain-containing protein 4.
In assay [7] the target is T6, Bromodomain and PHD finger-containing protein 3 (Homo sapiens, UniProt Q9ULD4).
T6 sequence (Q9ULD4 whole entry): T4 sequence (whole entry)
Description: Inhibition of human BRPF3 expressed in Escherichia coli BL21 after 1 hr by BROMOscan assay.

A further assay concerns the target T7, Peregrin (Homo sapiens, UniProt P55201).
T7 sequence (P55201 whole entry): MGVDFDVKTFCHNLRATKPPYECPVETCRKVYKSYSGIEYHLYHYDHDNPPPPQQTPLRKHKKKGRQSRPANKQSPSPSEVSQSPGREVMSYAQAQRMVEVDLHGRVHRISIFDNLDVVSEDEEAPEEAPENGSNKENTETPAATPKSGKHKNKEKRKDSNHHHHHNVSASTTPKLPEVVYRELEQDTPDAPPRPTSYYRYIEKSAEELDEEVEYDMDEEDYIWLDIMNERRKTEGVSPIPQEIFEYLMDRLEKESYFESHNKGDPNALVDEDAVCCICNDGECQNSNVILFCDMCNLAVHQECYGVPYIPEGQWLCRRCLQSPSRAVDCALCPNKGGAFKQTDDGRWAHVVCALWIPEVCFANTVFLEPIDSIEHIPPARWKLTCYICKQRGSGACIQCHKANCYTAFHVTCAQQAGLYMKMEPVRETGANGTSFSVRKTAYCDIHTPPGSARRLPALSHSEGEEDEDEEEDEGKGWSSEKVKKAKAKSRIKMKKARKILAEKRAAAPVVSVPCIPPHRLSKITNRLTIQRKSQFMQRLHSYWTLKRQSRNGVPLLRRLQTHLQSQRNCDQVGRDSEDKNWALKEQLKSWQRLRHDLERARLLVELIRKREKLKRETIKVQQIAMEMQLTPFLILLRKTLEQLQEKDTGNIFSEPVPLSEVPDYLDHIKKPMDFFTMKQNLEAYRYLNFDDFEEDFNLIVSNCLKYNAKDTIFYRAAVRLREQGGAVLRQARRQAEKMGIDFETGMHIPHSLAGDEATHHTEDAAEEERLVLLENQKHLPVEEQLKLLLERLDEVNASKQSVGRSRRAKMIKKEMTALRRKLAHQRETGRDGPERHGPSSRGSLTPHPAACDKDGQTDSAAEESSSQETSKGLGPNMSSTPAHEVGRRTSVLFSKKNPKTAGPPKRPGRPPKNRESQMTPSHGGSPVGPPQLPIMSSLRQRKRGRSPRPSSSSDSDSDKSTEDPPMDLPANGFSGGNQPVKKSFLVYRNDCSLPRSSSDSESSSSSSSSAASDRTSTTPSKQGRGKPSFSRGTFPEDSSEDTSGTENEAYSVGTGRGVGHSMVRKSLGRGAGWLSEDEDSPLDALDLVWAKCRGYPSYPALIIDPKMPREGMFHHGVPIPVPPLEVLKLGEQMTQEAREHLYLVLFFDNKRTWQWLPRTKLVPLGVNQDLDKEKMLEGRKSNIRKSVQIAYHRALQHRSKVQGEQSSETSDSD
Description: Inhibition of human BRPF1 expressed in Escherichia coli BL21 after 1 hr by BROMOscan assay.

Assay [8] addresses T8, Bromodomain-containing protein 1 (Homo sapiens, UniProt O95696).
T8 sequence (O95696 whole entry): T3 sequence (whole entry)
Description: Inhibition of human BRPF2-BRD1 expressed in Escherichia coli BL21 after 1 hr by BROMOscan assay.

The target of another assay is T9, Peregrin (Homo sapiens) (UniProt P55201).
T9 sequence (whole entry): T7 sequence (P55201 whole entry)

As usually defined, the pIC50 is the negative decadic logarithm of the IC50, by convention in mol/L. A low value points to a large IC50. By ΔTm is commonly meant the shift of the melting midpoint relative to a reference.

With `Cn1c(=O)ccc2cc(NS(=O)(=O)c3ccccc3)ccc21`, the negative-log IC50 (pIC50) was 6.66 in assay [1] and 5.77 in assay [2]. The thermal shift (ΔTm) turned out to be 1.9 °C in assay [3], 1.5 °C in [4], 3.5 °C in assay [5] and 1.1 °C in [6].
Turning to `Cn1c(=O)ccc2cc(NS(=O)(=O)c3ccc(C#N)cc3)ccc21`, the results for the pIC50 in assay [7] and in assay [2] were 6.00 and 5.55, respectively. For the same compound, the thermal shift (ΔTm) in assay [3] was found to be 2.4 °C; in [5] it was 2.3 °C; in [6], 1.4 °C.
For the compound `Cn1c(=O)ccc2cc(NS(=O)(=O)c3cccc(C#N)c3)ccc21`, the values for the shift in melting temperature (ΔTm) in assay [3], in [5] and in assay [6] were 2.1 °C, 2.5 °C and 1.1 °C, respectively.
`COc1ccccc1S(=O)(=O)Nc1ccc2c(c1)cc(C)c(=O)n2C` had a pIC50 in assay [2] of 6.22.
For the compound `Cn1c(=O)ccc2cc(NS(=O)(=O)c3ccc(Cl)c(Cl)c3)ccc21`, the pIC50 on Peregrin was 7.36; in [8], 6.64. The shift in melting temperature (ΔTm) was determined as 4.9 °C on Peregrin (Homo sapiens) and 2.5 °C in [3].
Turning to `Cn1c(=O)ccc2cc(NS(=O)(=O)c3ccccc3C#N)ccc21`, the figures for the ΔTm in assay [3], in assay [5] and in [6] were 0.9 °C, 2.9 °C and 1.3 °C, respectively.
On to `Cn1c(=O)ccc2cc(NS(=O)(=O)c3ccc(C#N)cc3F)ccc21`, for which the ΔTm was found to be 3.6 °C at Peregrin (Homo sapiens), 1.3 °C in [3] and 1.2 °C in assay [4].
Regarding `CCn1c(=O)c(C)cc2cc(NS(=O)(=O)c3ccc(C#N)cc3)ccc21`, on Peregrin, the pIC50 is 7.82. The ΔTm at Peregrin (Homo sapiens) worked out at 5.2 °C; in assay [3], 1.5 °C; in [4], 1.2 °C.
On to `CCc1cc2cc(NS(=O)(=O)c3ccc(C#N)cc3)ccc2n(C)c1=O`, for which the pIC50 against Peregrin is 6.74. Besides, the ΔTm in [3] came to 3.3 °C.
Take `Cn1c(=O)ccc2cc(N)ccc21`: the pIC50 at Peregrin was 5.68.
As to `Cc1cc2cc(N)ccc2n(C)c1=O`, on Peregrin, the pIC50 is 6.72. This pIC50 lies 1.04 log units higher than the previous one.
